Test results published in PubChem BioAssay (NCI).
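Protocol summary: plate cells (96-well), add compound at 5 concentrations, incubate 48 h, interpolate endpoints linearly. TGI: concentration producing complete growth inhibition.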

Tests used:
Assay in all cases: NCI tumour cell line growth inhibition, 48 h
KM12 colon = tested on: KM12 colon
SK-MEL-28 melanoma = tested on: SK-MEL-28 melanoma
HL-60(TB) leukemia = tested on: HL-60(TB) leukemia
UACC-257 melanoma = tested on: UACC-257 melanoma
A498 renal = tested on: A498 renal
U251 CNS = tested on: U251 CNS
SF-295 CNS = tested on: SF-295 CNS
NCI-H23 lung = tested on: NCI-H23 lung
A549 NSCLC = tested on: A549 NSCLC
SF-268 CNS = tested on: SF-268 CNS
BT-549 breast = tested on: BT-549 breast
MCF7 breast = tested on: MCF7 breast
IGROV1 ovarian = tested on: IGROV1 ovarian
NCI/ADR-RES ovarian = tested on: NCI/ADR-RES ovarian
HT29 colon = tested on: HT29 colon
OVCAR-5 ovarian = tested on: OVCAR-5 ovarian
OVCAR-3 ovarian = tested on: OVCAR-3 ovarian
SNB-75 CNS = tested on: SNB-75 CNS
NCI-H460 lung = tested on: NCI-H460 lung
UO-31 renal = tested on: UO-31 renal
MALME-3M melanoma = tested on: MALME-3M melanoma
HS 578T breast = tested on: HS 578T breast
HOP-62 NSCLC = tested on: HOP-62 NSCLC
SK-OV-3 ovarian = tested on: SK-OV-3 ovarian
SF-539 CNS = tested on: SF-539 CNS
NCI-H226 lung = tested on: NCI-H226 lung
RXF 393 renal = tested on: RXF 393 renal
NCI-H522 lung = tested on: NCI-H522 lung
SW-620 colon = tested on: SW-620 colon
ACHN renal = tested on: ACHN renal
MOLT-4 leukemia = tested on: MOLT-4 leukemia
SK-MEL-5 melanoma = tested on: SK-MEL-5 melanoma
M14 melanoma = tested on: M14 melanoma
CCRF-CEM leukemia = tested on: CCRF-CEM leukemia
CAKI-1 renal = tested on: CAKI-1 renal
EKVX NSCLC = tested on: EKVX NSCLC
RPMI-8226 leukemia = tested on: RPMI-8226 leukemia
LOX IMVI melanoma = tested on: LOX IMVI melanoma
HCC-2998 colon = tested on: HCC-2998 colon
UACC-62 melanoma = tested on: UACC-62 melanoma
TK-10 renal = tested on: TK-10 renal
SNB-19 CNS = tested on: SNB-19 CNS
K-562 leukemia = tested on: K-562 leukemia
MDA-MB-435 = tested on: MDA-MB-435
786-0 renal = tested on: 786-0 renal
SN12C renal = tested on: SN12C renal
OVCAR-8 ovarian = tested on: OVCAR-8 ovarian
HCT-116 colon = tested on: HCT-116 colon
MDA-N = tested on: MDA-N
HCT-15 colon = tested on: HCT-15 colon
SK-MEL-2 melanoma = tested on: SK-MEL-2 melanoma
PC-3 prostate = tested on: PC-3 prostate
OVCAR-4 ovarian = tested on: OVCAR-4 ovarian
T-47D breast = tested on: T-47D breast
HOP-92 NSCLC = tested on: HOP-92 NSCLC
SR leukemia = tested on: SR leukemia
MDA-MB-231 breast = tested on: MDA-MB-231 breast
DU-145 prostate = tested on: DU-145 prostate
COLO 205 colon = tested on: COLO 205 colon

Cc1nc(C(N)=S)sc1C(=O)CC(=O)C(=O)Nc1cccc(Cl)c1C
TGI (KM12 colon): > 100 µM | TGI (SK-MEL-28 melanoma): > 100 µM | TGI (HL-60(TB) leukemia): > 100 µM | TGI (UACC-257 melanoma): > 100 µM | TGI (A498 renal): > 100 µM | TGI (U251 CNS): > 100 µM | TGI (SF-295 CNS): > 100 µM | TGI (NCI-H23 lung): > 100 µM | TGI (A549 NSCLC): > 100 µM | TGI (SF-268 CNS): > 100 µM | TGI (BT-549 breast): > 100 µM | TGI (MCF7 breast): > 100 µM | TGI (IGROV1 ovarian): > 100 µM | TGI (NCI/ADR-RES ovarian): > 100 µM | TGI (HT29 colon): > 100 µM | TGI (OVCAR-5 ovarian): > 100 µM | TGI (OVCAR-3 ovarian): > 100 µM | TGI (SNB-75 CNS): > 100 µM | TGI (NCI-H460 lung): > 100 µM | TGI (UO-31 renal): > 100 µM | TGI (MALME-3M melanoma): > 100 µM | TGI (HS 578T breast): > 100 µM | TGI (HOP-62 NSCLC): > 100 µM | TGI (SK-OV-3 ovarian): > 100 µM | TGI (SF-539 CNS): > 100 µM | TGI (NCI-H226 lung): > 100 µM | TGI (RXF 393 renal): > 100 µM | TGI (NCI-H522 lung): > 100 µM | TGI (SW-620 colon): > 100 µM | TGI (ACHN renal): > 100 µM | TGI (MOLT-4 leukemia): > 100 µM | TGI (SK-MEL-5 melanoma): > 100 µM | TGI (M14 melanoma): > 100 µM | TGI (CCRF-CEM leukemia): > 100 µM | TGI (CAKI-1 renal): > 100 µM | TGI (EKVX NSCLC): > 100 µM | TGI (RPMI-8226 leukemia): > 100 µM | TGI (LOX IMVI melanoma): > 100 µM | TGI (HCC-2998 colon): > 100 µM | TGI (UACC-62 melanoma): > 100 µM | TGI (TK-10 renal): > 100 µM | TGI (SNB-19 CNS): > 100 µM | TGI (K-562 leukemia): > 100 µM | TGI (MDA-MB-435): > 100 µM | TGI (786-0 renal): > 100 µM | TGI (SN12C renal): > 100 µM | TGI (OVCAR-8 ovarian): > 100 µM | TGI (HCT-116 colon): > 100 µM | TGI (MDA-N): > 100 µM | TGI (HCT-15 colon): > 100 µM | TGI (SK-MEL-2 melanoma): > 100 µM | TGI (PC-3 prostate): > 100 µM | TGI (OVCAR-4 ovarian): > 100 µM | TGI (T-47D breast): > 100 µM | TGI (HOP-92 NSCLC): > 100 µM | TGI (SR leukemia): > 100 µM | TGI (MDA-MB-231 breast): > 100 µM

C=C(CCC(C(=O)O)C1CCC2(C)C3=C(CCC12C)C1(C)CCC(O)C(C)(C)C1CC3)C(C)C (stereo unspecified)
TGI (KM12 colon): 22.6 µM | TGI (SK-MEL-28 melanoma): > 100 µM | TGI (UACC-257 melanoma): > 100 µM | TGI (A498 renal): 75.2 µM | TGI (U251 CNS): 72.8 µM | TGI (SF-295 CNS): > 100 µM | TGI (NCI-H23 lung): > 100 µM | TGI (A549 NSCLC): > 100 µM | TGI (SF-268 CNS): > 100 µM | TGI (BT-549 breast): > 100 µM | TGI (MCF7 breast): > 100 µM | TGI (IGROV1 ovarian): 63.1 µM | TGI (NCI/ADR-RES ovarian): 70.5 µM | TGI (HT29 colon): > 100 µM | TGI (OVCAR-5 ovarian): > 100 µM | TGI (OVCAR-3 ovarian): > 100 µM | TGI (SNB-75 CNS): > 100 µM | TGI (NCI-H460 lung): 37.5 µM | TGI (UO-31 renal): > 100 µM | TGI (HS 578T breast): > 100 µM | TGI (DU-145 prostate): > 100 µM | TGI (COLO 205 colon): > 100 µM | TGI (HOP-62 NSCLC): > 100 µM | TGI (SK-OV-3 ovarian): > 100 µM | TGI (SF-539 CNS): > 100 µM | TGI (NCI-H226 lung): 96.3 µM | TGI (NCI-H522 lung): 50.3 µM | TGI (SW-620 colon): > 100 µM | TGI (ACHN renal): > 100 µM | TGI (MOLT-4 leukemia): > 100 µM | TGI (SK-MEL-5 melanoma): > 100 µM | TGI (M14 melanoma): > 100 µM | TGI (CAKI-1 renal): > 100 µM | TGI (EKVX NSCLC): > 100 µM | TGI (RPMI-8226 leukemia): 79.7 µM | TGI (LOX IMVI melanoma): 89 µM | TGI (HCC-2998 colon): > 100 µM | TGI (UACC-62 melanoma): > 100 µM | TGI (TK-10 renal): > 100 µM | TGI (SNB-19 CNS): > 100 µM | TGI (K-562 leukemia): 43.3 µM | TGI (MDA-MB-435): > 100 µM | TGI (786-0 renal): > 100 µM | TGI (SN12C renal): > 100 µM | TGI (OVCAR-8 ovarian): 47.2 µM | TGI (HCT-116 colon): > 100 µM | TGI (MDA-N): > 100 µM | TGI (HCT-15 colon): 68.5 µM | TGI (SK-MEL-2 melanoma): > 100 µM | TGI (PC-3 prostate): > 100 µM | TGI (OVCAR-4 ovarian): > 100 µM | TGI (T-47D breast): > 100 µM | TGI (HOP-92 NSCLC): > 100 µM | TGI (SR leukemia): 27.2 µM | TGI (MDA-MB-231 breast): > 100 µM

COC(=O)c1ccc(OCc2ccc3nc(-c4ccccc4)c(Cl)nc3c2)cc1
TGI (KM12 colon): > 100 µM | TGI (SK-MEL-28 melanoma): > 100 µM | TGI (HL-60(TB) leukemia): > 100 µM | TGI (UACC-257 melanoma): > 100 µM | TGI (A498 renal): > 100 µM | TGI (U251 CNS): > 100 µM | TGI (SF-295 CNS): > 100 µM | TGI (NCI-H23 lung): > 100 µM | TGI (A549 NSCLC): > 100 µM | TGI (SF-268 CNS): > 100 µM | TGI (BT-549 breast): > 100 µM | TGI (MCF7 breast): > 100 µM | TGI (IGROV1 ovarian): > 100 µM | TGI (NCI/ADR-RES ovarian): > 100 µM | TGI (HT29 colon): > 100 µM | TGI (OVCAR-5 ovarian): > 100 µM | TGI (OVCAR-3 ovarian): > 100 µM | TGI (SNB-75 CNS): 55.4 µM | TGI (NCI-H460 lung): > 100 µM | TGI (UO-31 renal): > 100 µM | TGI (HS 578T breast): 99.4 µM | TGI (DU-145 prostate): > 100 µM | TGI (COLO 205 colon): > 100 µM | TGI (HOP-62 NSCLC): > 100 µM | TGI (SF-539 CNS): > 100 µM | TGI (NCI-H522 lung): 45.7 µM | TGI (SW-620 colon): > 100 µM | TGI (ACHN renal): > 100 µM | TGI (MOLT-4 leukemia): > 100 µM | TGI (SK-MEL-5 melanoma): > 100 µM | TGI (M14 melanoma): > 100 µM | TGI (CCRF-CEM leukemia): > 100 µM | TGI (CAKI-1 renal): 69.9 µM | TGI (EKVX NSCLC): > 100 µM | TGI (RPMI-8226 leukemia): > 100 µM | TGI (LOX IMVI melanoma): > 100 µM | TGI (HCC-2998 colon): > 100 µM | TGI (UACC-62 melanoma): > 100 µM | TGI (TK-10 renal): > 100 µM | TGI (SNB-19 CNS): > 100 µM | TGI (MDA-MB-435): > 100 µM | TGI (786-0 renal): 48.9 µM | TGI (SN12C renal): > 100 µM | TGI (OVCAR-8 ovarian): > 100 µM | TGI (HCT-116 colon): > 100 µM | TGI (MDA-N): > 100 µM | TGI (HCT-15 colon): > 100 µM | TGI (SK-MEL-2 melanoma): > 100 µM | TGI (PC-3 prostate): > 100 µM | TGI (OVCAR-4 ovarian): > 100 µM | TGI (T-47D breast): > 100 µM | TGI (HOP-92 NSCLC): > 100 µM | TGI (SR leukemia): > 100 µM | TGI (MDA-MB-231 breast): 60.2 µM
